Results from ChEMBL document CHEMBL5150017, “Mechanism of Action and Structure-Activity Relationship of α-Conotoxin Mr1.1 at the Human α9α10 Nicotinic Acetylcholine Receptor” (J Med Chem, 2022).
Activity calls are given as the source filed them. No cut-off for these calls is given here.

Tested on: Mus musculus
Assay: Analgesic activity in chronic constriction injury-induced mechanical pain mouse model assessed as increase in paw withdrawal latency at 60 mg/kg measured after 1 to 7 hrs
Assay type: functional, organism-based
Details: time 1-7 hrs

NCC1(CC(=O)O)CCCCC1
Activity: Active
